Patent US11866430B2, “Naphthyridinone compounds useful as T cell activators” (priority 2018, dated 2024)
Where two headings read alike, the source gives them in different places.

What was measured:
[1] = system: pre-activated CD4 T cells and Raji cells; assay: Raji CD4 T Cell IL2 Assay; format: cell-based
[2] = molecular target: human DGKα (Homo sapiens (Human), UniProt P23743); assay: biochemical; settings: detergent/lipid micelle substrate; read-out: DGKα IC50
Description: (§1) The DGKα and DGKζ reactions were performed using either extruded liposome (DGKα and DGKζ LIPGLO assays) or detergent/lipid micelle substrate (DGKα and DGKζ assays). The reactions were carried out in 50 mM MOPS pH 7.5, 100 mM NaCl, 10 mM MgCl2, 1 μM CaCl2, and 1 mM DTT (assay buffer). The reactions using a detergent/lipid micelle substrate also contained 50 mM octyl B-D-glucopyranoside. […] The lipid substrate concentrations were […], 0.25 mM DAG, and 2.75 mM PC for the extruded liposome reactions.
(§2) The compound inhibition studies were carried out as follows: 50 nL droplets of each test compound (top concentration 10 mM with 11 point, 3-fold dilution series for each compound) solubilized in DMSO were transferred to wells of a white 1536 well plate (Corning 3725). A 5 mL enzyme/substrate solution at 2× final reaction concentration was prepared by combining 2.5 mL 4× enzyme solution (20 nM DGKα or DGKζ (prepared as described below) in assay buffer) and 2.5 mL of either 4× liposome or 4× detergent/lipid micelle solution (compositions described below) and incubated at room temperature for 10 minutes. Next, 1 μL 2× enzyme/substrate solution was added to wells containing the test compound and reactions were initiated with the addition of 1 μL 300 uM ATP. The reactions were allowed to proceed for 1 hr, after which 2 μL Glo Reagent (Promega V9101) was added and incubated for 40 minutes. Next, 4 μL Kinase Detection Reagent was added and incubated for 30 minutes. Luminescence was recorded using an EnVision microplate reader. […] The compounds were evaluated at 11 concentrations to determine IC50.
(§3) The detergent/lipid micelle was prepared by combining 15 g phosphatidylserine (Avanti 840035P) and 1 g diacylglycerol (800811O) and dissolving into 150 mL chloroform in a 2 L round bottom flask. Chloroform was removed under high vacuum by rotary evaporation. The resulting colorless, tacky oil was resuspended in 400 mL 50 mM MOPS pH 7.5, 100 mM NaCl, 20 mM NaF, 10 mM MgCl2, 1 μM CaCl2), 1 mM DTT, and 200 mM octyl glucoside by vigorous mixing. The lipid/detergent solution was split into 5 mL aliquots and stored at −80° C.
(§4) Human DGK-alpha-TVMV-His-pFBgate and human DCK-zeta-transcript variant-2-TVMV-His-pFBgate baculovirus samples were generated using the Bac-to-Bac baculovirus expression system (Invitrogen) according to the manufacturer's protocol. The DNA used for expression of DGK-alpha and DGK-zeta have SEQ ID NOs: 1 and 3, respectively. Baculovirus amplification was achieved using infected Sf9 cells at 1:1500 virus/cell ratios, and grown for 65 hours at 27° C. post-transfection.
(§5) The expression scale up for each protein was carried out in the Cellbag 50 L WAVE-Bioreactor System 20/50 from GE Healthcare Bioscience. 12 L of 2×10^6 cells/mL Sf9 cells (Expression System, Davis, Calif.) grown in ESF921 insect medium (Expression System) were infected with virus stock at 1:200 virus/cell ratios, and grown for 66-68 hours at 27° C. post-infection. The infected cell culture was harvested by centrifugation at 2000 rpm for 20 min 4° C. in a SORVALL® RC12BP centrifuge. The cell pellets were stored at −70° C. until purification.
(§6) Full length human DGKα and DGKζ, each expressed containing a TVMV-cleavable C-terminal Hexa-His tag sequence (SEQ ID NOs: 2 and 4, respectively) and produced as described above, were purified from Sf) baculovirus-infected insect cell paste. The cells were lysed using nitrogen cavitation method with a nitrogen bomb (Parr Instruments), and the lysates were clarified by centrifugation. […] The three steps column chromatography included nickel affinity resin capture (i.e. HisTrap FF crude, GE Healthcare), followed by size exclusion chromatography (i.e. HiLoad 26/600 Superdex 200 prep grade, GE Healthcare for DGK-alpha, and HiPrep 26/600 Sephacryl S 300_HR, GE Healthcare for DGK-zeta).

[3] = molecular target: human DGKζ (Homo sapiens (Human), UniProt Q13574); assay: DGKζ assay (detergent/lipid micelle substrate); format: biochemical; settings: detergent/lipid micelle substrate; read-out: DGKζ IC50
human DGKζ, sequence (Q13574 other isoform, or with tags, fused parts or gaps): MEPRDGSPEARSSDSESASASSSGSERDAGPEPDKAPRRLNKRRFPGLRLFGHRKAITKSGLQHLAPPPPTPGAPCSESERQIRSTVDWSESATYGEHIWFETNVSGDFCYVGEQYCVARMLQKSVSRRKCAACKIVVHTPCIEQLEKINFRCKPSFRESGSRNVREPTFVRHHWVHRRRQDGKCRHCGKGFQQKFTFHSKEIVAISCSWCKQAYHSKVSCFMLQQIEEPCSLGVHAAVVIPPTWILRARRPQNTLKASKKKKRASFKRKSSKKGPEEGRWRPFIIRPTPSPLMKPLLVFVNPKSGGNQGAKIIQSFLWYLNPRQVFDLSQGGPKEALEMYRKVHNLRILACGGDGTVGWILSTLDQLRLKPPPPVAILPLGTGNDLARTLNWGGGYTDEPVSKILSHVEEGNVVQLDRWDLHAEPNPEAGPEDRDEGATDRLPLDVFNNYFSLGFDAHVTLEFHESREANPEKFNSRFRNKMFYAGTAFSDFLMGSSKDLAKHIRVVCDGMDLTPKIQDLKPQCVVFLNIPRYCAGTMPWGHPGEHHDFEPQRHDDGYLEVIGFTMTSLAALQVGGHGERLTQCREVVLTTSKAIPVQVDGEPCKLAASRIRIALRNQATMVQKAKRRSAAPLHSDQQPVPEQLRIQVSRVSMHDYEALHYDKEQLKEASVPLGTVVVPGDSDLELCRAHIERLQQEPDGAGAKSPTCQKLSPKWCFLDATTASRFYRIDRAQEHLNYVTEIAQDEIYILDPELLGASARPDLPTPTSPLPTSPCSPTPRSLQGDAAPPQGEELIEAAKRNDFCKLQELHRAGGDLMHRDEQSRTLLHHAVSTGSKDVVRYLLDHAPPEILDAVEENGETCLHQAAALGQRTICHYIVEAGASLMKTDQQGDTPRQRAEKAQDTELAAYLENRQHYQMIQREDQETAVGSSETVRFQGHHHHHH
Description: as §1, §2, §3, §4, §5, §6

human DGKα, sequence (P23743 other isoform, or with tags, fused parts or gaps): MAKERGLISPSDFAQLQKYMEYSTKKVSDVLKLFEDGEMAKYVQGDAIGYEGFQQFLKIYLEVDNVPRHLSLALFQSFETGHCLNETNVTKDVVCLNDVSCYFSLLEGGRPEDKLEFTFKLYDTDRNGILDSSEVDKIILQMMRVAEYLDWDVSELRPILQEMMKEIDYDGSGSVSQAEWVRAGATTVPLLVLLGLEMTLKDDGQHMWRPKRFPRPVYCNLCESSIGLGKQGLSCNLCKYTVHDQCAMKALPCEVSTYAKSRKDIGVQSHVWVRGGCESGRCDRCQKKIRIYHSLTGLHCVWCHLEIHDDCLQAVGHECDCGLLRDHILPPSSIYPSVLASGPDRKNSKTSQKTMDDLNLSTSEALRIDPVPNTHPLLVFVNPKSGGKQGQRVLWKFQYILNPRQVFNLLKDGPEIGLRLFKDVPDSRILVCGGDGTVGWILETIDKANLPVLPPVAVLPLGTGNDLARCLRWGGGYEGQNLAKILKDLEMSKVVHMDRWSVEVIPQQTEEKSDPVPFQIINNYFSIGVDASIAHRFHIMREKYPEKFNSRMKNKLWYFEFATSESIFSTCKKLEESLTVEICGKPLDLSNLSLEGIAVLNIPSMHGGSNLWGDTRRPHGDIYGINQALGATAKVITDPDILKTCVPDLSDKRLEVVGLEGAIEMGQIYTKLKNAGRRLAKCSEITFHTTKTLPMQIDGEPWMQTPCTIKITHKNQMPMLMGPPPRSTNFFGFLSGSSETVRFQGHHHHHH

| Structure (SMILES) | IC50 ([1]; Homo sapiens, Raji) [nM] | IC50 [2] [nM] | IC50 [3] [nM] | IC50 [1] [nM] |
| --- | --- | --- | --- | --- |
| Cn1c(=O)c(C#N)c(N2CCN(C(c3ccc(F)cc3)c3ccccc3O)CC2)c2nc(Br)ccc21 (racemic) [Example 8, 6-bromo-4-{4-[(4-fluorophenyl)(2-hydroxyphenyl)methyl]piperazin-1-yl}-1-methyl-2-oxo-1,2-dihydro-1,5-naphthyridine-3-carbonitrile] | 91 | – | – | – |
| COc1ccccc1C(c1ccc(F)cc1)N1CCN(c2c([N+](=O)[O-])c(=O)n(C)c3ccc(C#N)nc23)CC1 (racemic) [Example 18, 8-{4-[(4-fluorophenyl)(2-methoxyphenyl)methyl]piperazin-1-yl}-5-methyl-7-nitro-6-oxo-5,6-dihydro-1,5-naphthyridine-2-carbonitrile] | 23 | 960 | 2500 | – |
| C#CCn1c(=O)c(C#N)c(N2CCN(C(c3ccc(F)cc3)c3ccccc3O)CC2)c2nc(Br)ccc21 (racemic) [Example 105, 6-bromo-4-(4-((4-fluorophenyl)(2-hydroxyphenyl)methyl)piperazin-1-yl)-2-oxo-1-(prop-2-yn-1-yl)-1,2-dihydro-1,5-naphthyridine-3-carbonitrile] | – | 580 | 2500 | – |
| C#CCn1c(=O)c([N+](=O)[O-])c(N2CCN(C(c3ccc(F)cc3)c3ccc(F)cc3O)CC2)c2nc(C#N)ccc21 (racemic) [Example 119, 8-(4-((4-fluoro-2-hydroxyphenyl)(4-fluorophenyl)methyl)piperazin-1-yl)-7-nitro-6-oxo-5-(prop-2-yn-1-yl)-5,6-dihydro-1,5-naphthyridine-2-carbonitrile] | – | 970 | 190 | – |
| COc1cc(F)ccc1C(c1ccc(F)cc1)N1CCN(c2c([N+](=O)[O-])c(=O)n(C)c3ccc(C#N)nc23)CC1 (racemic) [Example 123, 8-(4-((4-fluoro-2-methoxyphenyl)(4-fluorophenyl)methyl)piperazin-1-yl)-5-methyl-7-nitro-6-oxo-5,6-dihydro-1,5-naphthyridine-2-carbonitrile] | – | 2300 | – | – |
| C#CCn1c(=O)c([N+](=O)[O-])c(N2CCN(C(c3ccc(F)cc3)c3ccc(F)cc3OC)CC2)c2nc(C#N)ccc21 (racemic) [Example 126, 8-(4-((4-fluoro-2-methoxyphenyl)(4-fluorophenyl)methyl)piperazin-1-yl)-7-nitro-6-oxo-5-(prop-2-yn-1-yl)-5,6-dihydro-1,5-naphthyridine-2-carbonitrile] | – | 6100 | 330 | – |
| C#CCOc1ccccc1C(c1ccc(F)cc1)N1CCN(c2c(C#N)c(=O)n(C)c3ccc(Br)nc23)CC1 (single isomer, unassigned) [Example 6, 6-bromo-4-{4-[(4-fluorophenyl) [2-(prop-2-yn-1-yloxy)phenyl]methyl]piperazin-1-yl}-1-methyl-2-oxo-1,2-dihydro-1,5-naphthyridine-3-carbonitrile] | – | 6500 | > 240000 | 820 |
| C#CCOc1ccccc1C(c1ccc(F)cc1)N1CCN(c2c(C#N)c(=O)n(C)c3ccc(Br)nc23)CC1 (single isomer, unassigned) [Example 7, 6-bromo-4-{4-[(4-fluorophenyl) [2-(prop-2-yn-1-yloxy)phenyl]methyl]piperazin-1-yl}-1-methyl-2-oxo-1,2-dihydro-1,5-naphthyridine-3-carbonitrile] | – | 500 | 120000 | 75 |
| Cn1c(=O)c(C#N)c(N2CCN(C(c3ccc(F)cc3)c3ccccc3O)CC2)c2nc(Br)ccc21 (single isomer, unassigned) [Example 9, 6-bromo-4-{4-[(4-fluorophenyl)(2-hydroxyphenyl)methyl]piperazin-1-yl}-1-methyl-2-oxo-1,2-dihydro-1,5-naphthyridine-3-carbonitrile] | – | – | – | > 100000 |
| Cn1c(=O)c(C#N)c(N2CCN(C(c3ccc(F)cc3)c3ccccc3O)CC2)c2nc(Br)ccc21 (single isomer, unassigned) [Example 10, 6-bromo-4-{4-[(4-fluorophenyl)(2-hydroxyphenyl)methyl]piperazin-1-yl}-1-methyl-2-oxo-1,2-dihydro-1,5-naphthyridine-3-carbonitrile] | – | – | – | 3 |
| Cn1c(=O)c(C#N)c(N2CCN(CC(O)c3ccc(F)cc3)CC2)c2nc(Br)ccc21 (single isomer, unassigned) [Example 29, 6-bromo-4-{4-[2-(4-fluorophenyl)-2-hydroxyethyl]piperazin-1-yl}-1-methyl-2-oxo-1,2-dihydro-1,5-naphthyridine-3-carbonitrile] | – | 570 | > 240000 | 2300 |
| Cn1c(=O)c(C#N)c(N2CCN(CC(O)c3ccc(F)cc3)CC2)c2nc(Br)ccc21 (single isomer, unassigned) [Example 30, 6-bromo-4-{4-[2-(4-fluorophenyl)-2-hydroxyethyl]piperazin-1-yl}-1-methyl-2-oxo-1,2-dihydro-1,5-naphthyridine-3-carbonitrile] | – | 1800 | 140000 | 1100 |
| COc1cc(F)ccc1C(c1ccc(F)cc1)N1CCN(c2c([N+](=O)[O-])c(=O)n(C)c3ccc(Br)nc23)CC1 (single isomer, unassigned) [Example 57, 6-bromo-4-(4-((4-fluoro-2-methoxyphenyl)(4-fluorophenyl)methyl)piperazin-1-yl)-1-methyl-3-nitro-1,5-naphthyridin-2(1H)-one] | – | 1600 | 110000 | 140 |
| Cn1c(=O)c(C#N)c(N2CCN(C3CCc4cc(F)cc(O)c43)CC2)c2nc(Cl)ccc21 (stereo not drawn) [Example 201, 6-chloro-4-(4-(5-fluoro-7-hydroxy-2,3-dihydro-1H-inden-1-yl)piperazin-1-yl)-1-methyl-2-oxo-1,2-dihydro-1,5-naphthyridine-3-carbonitrile] | 22000 | – | – | – |
| Cn1c(=O)c(C#N)c(N2CCN(C(c3ccc(F)cc3)c3ccc(F)cc3O)CC2)c2nc(Cl)ccc21 (stereo not drawn) [Example 222, 6-chloro-4-(4-((4-fluoro-2-hydroxyphenyl)(4-fluorophenyl)methyl)piperazin-1-yl)-1-methyl-2-oxo-1,2-dihydro-1,5-naphthyridine-3-carbonitrile] | 68 | 83 | – | – |
| Cc1ccc2c(n1)c(N1CCN(C(c3ccc(F)cc3)c3ccc(F)cc3)CC1)c(F)c(=O)n2C [Example 234, 4-(4-(bis(4-fluorophenyl)methyl)piperazin-1-yl)-3-fluoro-1,6-dimethyl-1,5-naphthyridin-2(1H)-one] | 130 | 16000 | – | – |
| COc1ccc(CN2CCN(c3c(C#N)c(=O)n(C)c4ccc(Cl)nc34)CC2)c(O)c1 [Example 301, 6-chloro-4-{4-[(2-hydroxy-4-methoxyphenyl)methyl]piperazin-1-yl}-1-methyl-2-oxo-1,2-dihydro-1,5-naphthyridine-3-carbonitrile] | – | – | > 240000 | – |
| Cn1c(=O)c(C#N)c(N2CCN(Cc3cccc(Br)c3O)CC2)c2nc(Br)ccc21 [Example 380, 6-bromo-4-{4-[(3-bromo-2-hydroxyphenyl)methyl]piperazin-1-yl}-1-methyl-2-oxo-1,2-dihydro-1,5-naphthyridine-3-carbonitrile] | – | 830 | > 240000 | – |
